Data: ChEMBL document CHEMBL4706710, “Synthesis and evaluation of novel thiosemicarbazone and semicarbazone analogs with both anti-proliferative and anti-metastatic activities against triple negative breast cancer” (Bioorg Med Chem, 2021)
Each block holds one compound with its values, some of them ahead of it. Calls of active or inactive are those of the source. The rule behind the calls is not given here.

Tests used:
[1] = tested on: MCF7; assay: Antiproliferative activity against human MCF7 cells assessed as reduction in cell viability after 48 hrs by MTT assay; type: functional, cell-based; details: MCF7, 48 h
[2] = tested on: MDA-MB-231; assay: Antiproliferative activity against human MDA-MB-231 cells assessed as reduction in cell viability after 48 hrs by MTT assay; type: functional, cell-based; details: MDA-MB-231, 48 h
[3] = tested on: A549; assay: Antiproliferative activity against human A549 cells assessed as reduction in cell viability after 48 hrs by MTT assay; type: functional, cell-based; details: A549, 48 h
[4] = tested on: HT-29; assay: Antiproliferative activity against human HT-29 cells assessed as reduction in cell viability after 48 hrs by MTT assay; type: functional, cell-based; details: HT-29, 48 h
[5] = tested on: HUVEC; assay: Cytotoxicity against human HUVEC cells assessed as reduction in cell viability after 48 hrs by MTT assay; type: cell-based
[6] = tested on: MDA-MB-231; assay: Potency index, ratio of hecogenin IC50 to test compound IC50 for antiproliferative activity against human MDA-MB-231 cells; type: functional
[7] = tested on: MCF7; assay: Potency index, ratio of hecogenin IC50 to test compound IC50 for antiproliferative activity against human MCF7 cells; type: functional
[8] = tested on: MDA-MB-231; assay: Induction of apoptosis in human MDA-MB-231 cells assessed as increase in early apoptotic cells at 10 uM by annexin V-FITC/propidium iodide staining based flow cytometric analysis; type: functional, cell-based; details: time 3-9 hrs, TDE = time-dependent effect
[9] = tested on: MDA-MB-231; assay: Induction of apoptosis in human MDA-MB-231 cells assessed as increase in late apoptotic cells at 10 uM by annexin V-FITC/propidium iodide staining based flow cytometric analysis; type: functional, cell-based; details: time 3-9 hrs, TDE = time-dependent effect
[10] = tested on: MDA-MB-231; assay: Induction of apoptosis in human MDA-MB-231 cells assessed as viable cells at 10 uM after 3 hrs by annexin V-FITC/propidium iodide staining based flow cytometric analysis (reference value: 91.2%); type: functional; details: read-out: Activity
[11] = tested on: MDA-MB-231; assay: Induction of apoptosis in human MDA-MB-231 cells assessed as viable cells at 10 uM after 6 hrs by annexin V-FITC/propidium iodide staining based flow cytometric analysis (reference value: 91.2%); type: functional; details: read-out: Activity
[12] = tested on: MDA-MB-231; assay: Induction of apoptosis in human MDA-MB-231 cells assessed as viable cells at 10 uM after 9 hrs by annexin V-FITC/propidium iodide staining based flow cytometric analysis (reference value: 91.2%); type: functional; details: read-out: Activity
[13] = tested on: MDA-MB-231; assay: Induction of apoptosis in human MDA-MB-231 cells assessed as early apoptotic cells at 10 uM after 3 hrs by annexin V-FITC/propidium iodide staining based flow cytometric analysis (reference value: 2.7%); type: functional
[14] = tested on: MDA-MB-231; assay: Induction of apoptosis in human MDA-MB-231 cells assessed as early apoptotic cells at 10 uM after 6 hrs by annexin V-FITC/propidium iodide staining based flow cytometric analysis (reference value: 2.7%); type: functional
[15] = tested on: MDA-MB-231; assay: Induction of apoptosis in human MDA-MB-231 cells assessed as early apoptotic cells at 10 uM after 9 hrs by annexin V-FITC/propidium iodide staining based flow cytometric analysis (reference value: 2.7%); type: functional
[16] = tested on: MDA-MB-231; assay: Induction of apoptosis in human MDA-MB-231 cells assessed as late apoptotic cells at 10 uM after 3 hrs by annexin V-FITC/propidium iodide staining based flow cytometric analysis (reference value: 3.1%); type: functional
[17] = tested on: MDA-MB-231; assay: Induction of apoptosis in human MDA-MB-231 cells assessed as late apoptotic cells at 10 uM after 6 hrs by annexin V-FITC/propidium iodide staining based flow cytometric analysis (reference value: 3.1%); type: functional
[18] = tested on: MDA-MB-231; assay: Induction of apoptosis in human MDA-MB-231 cells assessed as late apoptotic cells at 10 uM after 9 hrs by annexin V-FITC/propidium iodide staining based flow cytometric analysis (reference value: 3.1%); type: functional
[19] = tested on: MDA-MB-231; assay: Induction of apoptosis in human MDA-MB-231 cells assessed as necrotic cells at 10 uM after 3 hrs by annexin V-FITC/propidium iodide staining based flow cytometric analysis (reference value: 3%); type: functional
[20] = tested on: MDA-MB-231; assay: Induction of apoptosis in human MDA-MB-231 cells assessed as necrotic cells at 10 uM after 6 hrs by annexin V-FITC/propidium iodide staining based flow cytometric analysis (reference value: 3%); type: functional
[21] = tested on: MDA-MB-231; assay: Induction of apoptosis in human MDA-MB-231 cells assessed as necrotic cells at 10 uM after 9 hrs by annexin V-FITC/propidium iodide staining based flow cytometric analysis (reference value: 3%); type: functional
[22] = tested on: MDA-MB-231; assay: Induction of cell cycle arrest in human MDA-MB-231 cells assessed as accumulation at sub-G1 phase at 10 uM after 48 hrs by propidium iodide staining based flow cytometric analysis (reference value: 3.25%); type: functional
[23] = tested on: MDA-MB-231; assay: Induction of cell cycle arrest in human MDA-MB-231 cells assessed as accumulation at sub-G1 phase at 20 uM after 48 hrs by propidium iodide staining based flow cytometric analysis (reference value: 3.25%); type: functional
[24] = tested on: MDA-MB-231; assay: Induction of cell cycle arrest in human MDA-MB-231 cells assessed as accumulation at sub-G1 phase at 40 uM after 48 hrs by propidium iodide staining based flow cytometric analysis (reference value: 3.25%); type: functional
[25] = tested on: MCF7; assay: Induction of cell cycle arrest in human MCF7 cells assessed as accumulation at sub-G1 phase at 10 uM after 48 hrs by propidium iodide staining based flow cytometric analysis (reference value: 3.04%); type: functional
[26] = tested on: MCF7; assay: Induction of cell cycle arrest in human MCF7 cells assessed as accumulation at sub-G1 phase at 20 uM after 48 hrs by propidium iodide staining based flow cytometric analysis (reference value: 3.04%); type: functional
[27] = tested on: MCF7; assay: Induction of cell cycle arrest in human MCF7 cells assessed as accumulation at sub-G1 phase at 40 uM after 48 hrs by propidium iodide staining based flow cytometric analysis (reference value: 3.04%); type: functional
[28] = tested on: MCF7; assay: Induction of cell cycle arrest in human MCF7 cells assessed as accumulation at sub-G1 phase after 48 hrs by propidium iodide staining based flow cytometric analysis; type: functional; details: dose 10-40 µM
[29] = tested on: MDA-MB-231; assay: Induction of cell cycle arrest in human MDA-MB-231 cells assessed as accumulation at sub-G1 phase after 48 hrs by propidium iodide staining based flow cytometric analysis; type: functional; details: dose 10-40 µM
[30] = tested on: MDA-MB-231; assay: Inhibition of cell migration in human MDA-MB-231 cells at 20 uM after 20 hrs by inverted microscopic method; type: functional, cell-based
[31] = tested on: MDA-MB-231; assay: Antiinvasive activity against in human MDA-MB-231 cells at 20 uM after 24 hrs by matrigel coated transwell assay; type: functional, cell-based

- IC50 [1]: 7.08 µM
- IC50 [2]: 14.1 µM
- IC50 [3]: 17.1 µM
- IC50 [4]: 13.2 µM
SMILES: CC(=O)O[C@H]1CC[C@@]2(C)[C@@H](CC[C@H]3[C@@H]4CC=C(/C(C)=N/NC(=S)Nc5ccccc5C)[C@@]4(C)C(=O)C[C@@H]32)C1

- IC50 [1]: 22.7 µM
- IC50 [2]: 25.4 µM
- IC50 [3]: 36.3 µM
- IC50 [4]: 34.1 µM
SMILES: CC(=O)O[C@H]1CC[C@@]2(C)[C@@H](CC[C@@H]3[C@@H]2CC(=O)N[C@]2(C)C(/C(C)=N/NC(=S)Nc4ccc(C(F)(F)F)cc4)=CC[C@@H]32)C1

- IC50 [1]: 6.86 µM
- IC50 [2]: 11.8 µM
- IC50 [3]: 9.75 µM
- IC50 [4]: 11.3 µM
SMILES: CC(=O)O[C@H]1CC[C@@]2(C)[C@@H](CC[C@H]3[C@@H]4CC=C(/C(C)=N/NC(=S)Nc5ccc(C(F)(F)F)cc5)[C@@]4(C)C(=O)C[C@@H]32)C1

- IC50 [1]: 11.6 µM
- IC50 [2]: 15.5 µM
- IC50 [3]: 22.7 µM
- IC50 [4]: 17.6 µM
SMILES: CC(=O)O[C@H]1CC[C@@]2(C)[C@@H](CC[C@H]3[C@@H]4CC=C(/C(C)=N/NC(=O)Nc5ccccc5)[C@@]4(C)C(=O)C[C@@H]32)C1

SMILES: C[C@@H]1CC[C@@]2(OC1)O[C@H]1C[C@H]3[C@@H]4CC[C@H]5C[C@@H](O)CC[C@]5(C)[C@H]4CC(=O)[C@]3(C)[C@H]1[C@@H]2C
- IC50 [1]: 28.7 µM
- IC50 [2]: 31.2 µM
- IC50 [3]: > 40 µM
- IC50 [4]: > 40 µM
- IC50 [5]: > 100 µM

- IC50 [1]: 2.16 µM
- IC50 [2]: 10.4 µM
- IC50 [3]: 7.68 µM
- IC50 [4]: 10.6 µM
SMILES: CC(=O)O[C@H]1CC[C@@]2(C)[C@@H](CC[C@H]3[C@@H]4CC=C(/C(C)=N/NC(=S)Nc5ccccc5)[C@@]4(C)C(=O)C[C@@H]32)C1
- Ratio IC50 [6]: >10
- Ratio IC50 [7]: >10

- IC50 [1]: 1.74 µM
- IC50 [2]: 5.89 µM
- IC50 [3]: 6.84 µM
- IC50 [4]: 7.69 µM
SMILES: CC(=O)O[C@H]1CC[C@@]2(C)[C@@H](CC[C@H]3[C@@H]4CC=C(/C(C)=N/NC(N)=O)[C@@]4(C)C(=O)C[C@@H]32)C1
- IC50 [5]: > 100 µM
- Ratio IC50 [6]: >10
- Ratio IC50 [7]: >10

- IC50 [1]: 29.6 µM
- IC50 [2]: > 40 µM
- IC50 [3]: > 40 µM
- IC50 [4]: 37.5 µM
SMILES: CC(=O)O[C@H]1CC[C@@]2(C)[C@@H](CC[C@@H]3[C@@H]2CC(=O)N[C@]2(C)C(/C(C)=N/NC(=S)Nc4ccccc4C)=CC[C@@H]32)C1

- IC50 [1]: 19.1 µM
- IC50 [2]: 25.9 µM
- IC50 [3]: 35.1 µM
- IC50 [4]: 34 µM
SMILES: CC(=O)O[C@H]1CC[C@@]2(C)[C@@H](CC[C@@H]3[C@@H]2CC(=O)N[C@]2(C)C(/C(C)=N/NC(=S)Nc4ccccc4)=CC[C@@H]32)C1

- IC50 [1]: 17.4 µM
- IC50 [2]: 19.2 µM
- IC50 [3]: 29 µM
- IC50 [4]: 28.5 µM
SMILES: CC(=O)O[C@H]1CC[C@@]2(C)[C@@H](CC[C@@H]3[C@@H]2CC(=O)N[C@]2(C)C(/C(C)=N/NC(N)=O)=CC[C@@H]32)C1

- IC50 [1]: 1.59 µM
- IC50 [2]: 2.67 µM
- IC50 [3]: 5.44 µM
- IC50 [4]: 6.72 µM
SMILES: CC(=O)O[C@H]1CC[C@@]2(C)[C@@H](CC[C@H]3[C@@H]4CC=C(/C(C)=N/NC(N)=S)[C@@]4(C)C(=O)C[C@@H]32)C1
- IC50 [5]: > 100 µM
- Activity [8]: Tde
- Activity [9]: Tde
- viability at 10 µM [10]: 77.4%
- viability at 10 µM [11]: 74.1%
- viability at 10 µM [12]: 68.8%
- Activity [13]: 5.9%
- Activity [14]: 6.3%
- Activity [15]: 7.8%
- Activity [16]: 9.5%
- Activity [17]: 12.1%
- Activity [18]: 15.2%
- Activity [19]: 7.2%
- Activity [20]: 7.5%
- Activity [21]: 8.2%
- Activity [22]: 14.82%
- Activity [23]: 39.79%
- Activity [24]: 54.95%
- Activity [25]: 25.52%
- Activity [26]: 44.95%
- Activity [27]: 67.72%
- Activity [28]: Dose-dependent effect
- Activity [29]: Dose-dependent effect
- inhibition [30]: Active
- Activity [31]: Active
- Ratio IC50 [6]: >10
- Ratio IC50 [7]: >10

- IC50 [1]: 35.8 µM
- IC50 [2]: > 40 µM
- IC50 [3]: > 40 µM
- IC50 [4]: > 40 µM
SMILES: CC(=O)O[C@H]1CC[C@@]2(C)[C@@H](CC[C@@H]3[C@@H]2CC(=O)N[C@]2(C)C(/C(C)=N/NC(=O)Nc4ccccc4)=CC[C@@H]32)C1

- IC50 [1]: 15.1 µM
- IC50 [2]: 16.6 µM
- IC50 [3]: 28.9 µM
- IC50 [4]: 27 µM
SMILES: CC(=O)O[C@H]1CC[C@@]2(C)[C@@H](CC[C@@H]3[C@@H]2CC(=O)N[C@]2(C)C(/C(C)=N/NC(N)=S)=CC[C@@H]32)C1
